Converted amounts (≈) assume the structure as drawn. Like-named read-outs stand apart in the source and are kept apart here. Where a SMILES comes first, the peptide text is derived from it. [ ]: non-standard residue; d: D form.
Experiments:
[1] = system: M. fortuitum; assay: MIC against M. fortuitum; format: cell-based, Mycobacterium fortuitum; settings: M. fortuitum (ATCC 6841); CAAT media
[2] = system: M. avium; assay: MIC against M. avium; format: cell-based, Mycobacterium avium; settings: M. avium (ATCC 700898); CAAT media
[3] = system: M. intracellulare; assay: MIC against M. intracellulare; format: cell-based, Mycobacterium intracellulare; settings: M. intracellulare (ATCC 13950); CAAT media
[4] = system: M. tuberculosis; format: cell-based, Mycobacterium tuberculosis
[5] = system: A. dolens; assay: MIC by broth microdilution against A. dolens; format: cell-based, Achromobacter dolens; settings: A. dolens isolates
Description: (§1) MIC values were determined using a modification of the standard broth microdilution reference method defined by the Clinical and Laboratory Standards Institute (CLSI), CLSL. 2015. Methods for Dilution Antimicrobial Susceptibility Tests for Bacteria That Grow Aerobically; Approved Standard-10th Edition. Clinical and Laboratory Standards Institute, Wayne, PA. The modification was based on the replacement of Mueller Hinton Broth with either CAA media (with and without NaCl) or CAA supplemented with 2.5% human serum. MIC is the minimum concentration of peptide sufficient to suppress at least 80% of the bacterial growth compared to control.
(§2) Based on these nine most prevalent strains, direct lytic agents, including GN370, AM1, AM2, and AM3, were evaluated against various isolates from each of the 9 strains. MICs and MBECs (Example 3) were determined, and a sputum inhibition test was conducted, as described below in Example 5.
(§3) The MICs for were determined as described below using the broth microdilution method for meropenem, GN370, AM1, AM2, and AM3. The results are shown below in Tables 8-12.

[6] = system: B. cenocepacia; assay: MIC by broth microdilution against B. cenocepacia; format: cell-based, Burkholderia cenocepacia; settings: B. cenocepacia isolates
Description: as §1, §2, §3

[7] = system: B. gladioli; assay: MIC by broth microdilution against B. gladioli; format: cell-based, Burkholderia gladioli; settings: B. gladioli isolates
Description: as §1, §2, §3

[8] = system: P. apista; assay: MIC by broth microdilution against P. apista; format: cell-based, Pandoraea apista; settings: P. apista isolates
Description: as §1, §2, §3

[9] = system: A. xylosoxidans
Description: (§4) Biofilms are then washed and treated with e.g., a 2-fold dilution series of the lysin in TSBg at e.g., 37° C. for 24 hours. After treatment, wells are washed, air-dried at e.g., 37° C. and stained with e.g., 0.05% crystal violet for 10 minutes.
(§5) The antibiofilm activity of GN370, AM1, AM2, and AM3 was evaluated against various Gram-negative bacteria prevalent in cystic fibrosis patients, including P. aeruginosa, S. maltophilia, and A. xylosoxidans.
(§6) The MBEC (after 2-hour treatments) was determined as described in Jones and Wozniak, PsI Produced by Mucoid Pseudomonas aeruginosa Contributes to the Establishment of Biofilms and Immune Evasion, Am. […] Microbiol.

[10] = system: B. multivorans
Description: as §4, §5, §6

[11] = system: S. maltophilia
Description: as §4, §5, §6

[12] = system: P. aeruginosa; assay: Time-kill assay in cystic fibrosis patient sputum, P. aeruginosa; format: cell-based, Pseudomonas aeruginosa
Description: Sputum from 5 cystic fibrosis patients was pooled. The resulting mixture was not filtered, as it was very dense and not amenable to sterilization by filtration. Sputum is known to be a complex mixture of DNA, carbohydrates, and lipids ([…], 2016). As used herein, the term “sputum” refers to the mucus present in the respiratory tract of an animal, such as a human. Sputum may increase in thickness due to the irritation or infection, including bacterial infection, and in some instances, may be expelled by the animal while coughing. In certain instances, cystic fibrosis may be characterized by the presence of a thick, sticky mucus or sputum present in the lungs of cystic fibrosis patients. The activity of GN370, AM1, AM2, AM3, and meropenem was determined in the sputum using a time-kill assay format as disclosed in Zhang et al., Antimicrobial peptide therapeutics for cystic fibrosis, Antimicrobial Agents Chemother. 2005; 49(7):2921-2927. […] Untreated controls were included in addition to pretreatment plating (t=0) for a baseline CFU determination. Activity was also determined in the absence of sputum for comparison to activity observed in the presence of sputum.

[13] = system: A. ruhlandii; format: cell-based, Achromobacter ruhlandii
Description: The MBEC (after 2-hour treatments) was determined as described in Jones and Wozniak, PsI Produced by Mucoid Pseudomonas aeruginosa Contributes to the Establishment of Biofilms and Immune Evasion, Am. Soc. Microbiol. 2017, 8(3):e00864-17. Meropenem and tobramycin were included as controls and were both poorly active, with MBEC90 values of >256 μg/mL (data not shown).

[14] = system: P. aeruginosa
[15] = system: P. aeruginosa; remark: listed apart in the source

Question: For CC[C@H](C)[C@H](NC(=O)[C@@H](CCCNC(=N)N)NC(=O)[C@H](Cc1ccccc1)NC(=O)CNC(=O)CNC(=O)[C@@H](CCCNC(=N)N)NC(=O)[C@H](CCSC)NC(=O)[C@@H]1CCCN1C(=O)[C@@H](CCCNC(=N)N)NC(=O)[C@H](C)NC(=O)[C@@H](CCCNC(=N)N)NC(=O)[C@H](CC(C)C)NC(=O)[C@H](CC(N)=O)NC(=O)[C@@H](CCCNC(=N)N)NC(=O)[C@@H](CCCCN)NC(=O)[C@@H](CCCCN)NC(=O)[C@@H](NC(=O)[C@H](CC(N)=O)NC(=O)[C@@H](NC(=O)[C@H](C)NC(=O)CNC(=O)[C@@H](CCCNC(=N)N)NC(=O)[C@@H](NC(=O)[C@H](Cc1ccccc1)NC(=O)[C@@H](NC(=O)[C@@H](CCCCN)NC(=O)[C@@H](CCCNC(=N)N)NC(=O)[C@H](CO)NC(=O)[C@@H](CCCCN)NC(=O)[C@@H](CCCCN)NC(=O)[C@@H](CCCCN)NC(=O)[C@H](CO)NC(=O)[C@H](CC(C)C)NC(=O)[C@@H](CCCCN)NC(=O)[C@@H](CCCNC(=N)N)NC(=O)[C@@H](CCCNC(=N)N)NC(=O)[C@@H](CCCCN)NC(=O)[C@@H](N)CCSC)[C@@H](C)CC)[C@@H](C)O)C(C)C)C(C)C)C(=O)O [AM3] (H-M[dK][dR][dR][dK]LS[dK][dK][dK]S[dR][dK]IFT[dR]GAVNV[dK][dK][dR]NL[dR]A[dR]PM[dR]GGF[dR]I-OH; N-terminus and C-terminus assumed), which MIC [1] is on record?
Answer: Its MIC is 2 mg/L (≈ 0.438 µM).

Question: And the MIC [2]?
Answer: Its MIC is 1 Tg/mL.

Question: And the MIC [3]?
Answer: Its MIC is 2 mg/L (≈ 0.438 µM).

Question: And the MIC ([4]; M. tuberculosis (ATCC 35817), (ADC, T) media)?
Answer: The MIC was 8 mg/L (≈ 1.75 µM).

Question: What about the MIC ([4]; M. tuberculosis strain TN8109_LB (MDR), 7H9 broth, 20 days) of the same compound?
Answer: The MIC was 16 mg/L (≈ 3.5 µM).

Question: What about the MIC ([4]; M. tuberculosis strain TN8562_M33 (susc), 7H9 broth, 20 days) of the same compound?
Answer: Its MIC is 16 mg/L (≈ 3.5 µM).

Question: What about the MIC ([4]; M. tuberculosis strain TN10525_LL (MDR), 7H9 broth, 20 days) of the same compound?
Answer: Its MIC is 64 mg/L (≈ 14 µM).

Question: And the MIC ([4]; M. tuberculosis strain TN10571_KY (MDR), 7H9 broth, 20 days)?
Answer: Its MIC is 16 mg/L (≈ 3.5 µM).

Question: What about the MIC ([4]; M. tuberculosis strain TN12657_KQ15 (IS), 7H9 broth, 20 days) of the same compound?
Answer: Its MIC is 16 mg/L (≈ 3.5 µM).

Question: And the MIC ([4]; M. tuberculosis strain TN13923_HD17 (susc), 7H9 broth, 20 days)?
Answer: The MIC was 32 mg/L (≈ 7 µM).

Question: What about the MIC ([4]; M. tuberculosis strain TN18349_W738 (susc), 7H9 broth, 20 days) of the same compound?
Answer: The MIC was 4 mg/L (≈ 0.875 µM).

Question: And the MIC ([4]; M. tuberculosis strain TN34503_001 (susc), 7H9 broth, 20 days)?
Answer: The MIC was 16 mg/L (≈ 3.5 µM).

Question: And the MIC50 [5]?
Answer: The MIC50 was 2 mg/L (≈ 0.438 µM).

Question: And the MIC90 [5]?
Answer: The MIC90 was 8 mg/L (≈ 1.75 µM).

Question: What about the “MIC Range” value ([5]; in µg/mL) of the same compound?
Answer: The value was 0.016-16.

Question: What about the MIC50 [6] of the same compound?
Answer: Its MIC50 is greater than 128 mg/L.

Question: What about the MIC90 [6] of the same compound?
Answer: The MIC90 was greater than 128 mg/L.

Question: And the MIC50 [7]?
Answer: The MIC50 was 32 mg/L (≈ 7 µM).

Question: And the MIC90 [7]?
Answer: Its MIC90 is 128 mg/L (≈ 28 µM).

Question: What about the MIC50 [8] of the same compound?
Answer: Its MIC50 is greater than 128 mg/L.

Question: And the MIC90 [8]?
Answer: Its MIC90 is greater than 128 mg/L.

Question: And the MBEC50 [9]?
Answer: The MBEC50 was 1 µg/mL.

Question: What about the MBEC90 [9] of the same compound?
Answer: Its MBEC90 is 2 µg/mL.

Question: What about the “MBEC Range” value [9] of the same compound?
Answer: The value was 0.125 to 4 µg/mL.

Question: What about the “antibiofilm activity (MBEC) against A. xylosoxidans” value ([9]; 2-hour treatments) of the same compound?
Answer: Its value is “primarily active”.

Question: And the MBEC50 [10]?
Answer: Its MBEC50 is 2 µg/mL.

Question: And the MBEC90 [10]?
Answer: Its MBEC90 is 4 µg/mL.

Question: And the “MBEC Range” value [10]?
Answer: The value was 1 to 8 µg/mL.

Question: What about the MBEC50 [11] of the same compound?
Answer: The MBEC50 was 1 µg/mL.

Question: And the MBEC90 [11]?
Answer: The MBEC90 was 2 µg/mL.

Question: And the “MBEC Range” value [11]?
Answer: Its value is 0.125 to 16 µg/mL.

Question: What about the “effect of sputum on antibacterial activity” value ([12]; 10% CF sputum vs no sputum) of the same compound?
Answer: The value was “not inhibited”.

Question: And the “Log10 CFU/mL of sputum” value ([12]; absence of sputum, 1 hr)?
Answer: The value was 2.3 Log10 CFU/mL of sputum.

Question: What about the “Log10 CFU/mL of sputum” value ([12]; absence of sputum, 3 hr) of the same compound?
Answer: The value was 2.3 Log10 CFU/mL of sputum.

Question: And the “Log10 CFU/mL of sputum” value ([12]; absence of sputum, 24 hr)?
Answer: Its value is 2.3 Log10 CFU/mL of sputum.

Question: And the “Log10 CFU/mL of sputum” value ([12]; presence of 10% sputum, 1 hr)?
Answer: The value was 2.3 Log10 CFU/mL of sputum.

Question: What about the “Log10 CFU/mL of sputum” value ([12]; presence of 10% sputum, 3 hr) of the same compound?
Answer: Its value is 2.3 Log10 CFU/mL of sputum.

Question: And the “Log10 CFU/mL of sputum” value ([12]; presence of 10% sputum, 24 hr)?
Answer: The value was 2.3 Log10 CFU/mL of sputum.

Question: What about the “killing by 1 hour, maintained by 24 hours” value ([12]; time-kill) of the same compound?
Answer: The value was “complete killing”.

Question: And the MBEC50 [13]?
Answer: The MBEC50 was 16 µg/mL.

Question: What about the MBEC90 [13] of the same compound?
Answer: The MBEC90 was 16 µg/mL.

Question: What about the “MBEC Range” value [13] of the same compound?
Answer: The value was 1 to 32 µg/mL.

Question: And the MIC50 ([14]; P. aeruginosa isolates)?
Answer: Its MIC50 is 0.06 mg/L (≈ 0.0131 µM).

Question: What about the MIC90 ([14]; P. aeruginosa isolates) of the same compound?
Answer: The MIC90 was 0.25 mg/L (≈ 0.0547 µM).

Question: What about the “MIC Range” value ([14]; P. aeruginosa isolates, in µg/mL) of the same compound?
Answer: The value was 0.016-1.

Question: What about the MIC ([14]; P. aeruginosa test organism of the sputum time-kill assay) of the same compound?
Answer: The MIC was “(MIC = 0.125)”.

Question: What about the “activity (MIC) against P. aeruginosa isolates” value ([14]; all tested isolates, Tables 8-12) of the same compound?
Answer: The value was “highly active”.

Question: What about the MBEC50 [15] of the same compound?
Answer: Its MBEC50 is 0.125 µg/mL.

Question: And the MBEC90 [15]?
Answer: Its MBEC90 is 1 µg/mL.

Question: And the “MBEC Range” value [15]?
Answer: The value was 0.016 to 1 µg/mL.

Question: And the “antibiofilm activity (MBEC) against P. aeruginosa” value ([15]; 2-hour treatments)?
Answer: Its value is “primarily active”.

Reference: US20240181022A1, “AMURINS LYSINS, AND LYSIN-ANTIMICROBIAL PEPTIDE (AMP) CONSTRUCTS ACTIVE AGAINST GRAM-NEGATIVE BACTERIA” (priority 2021, published 2024)
